# Experimental data from patent publication US20230067378A1, “COMPOSITIONS AND METHODS FOR THE TREATMENT OF ESTROGEN-DEPENDENT DISORDERS” (ObsEva S.A., priority 2018, published 2023).
# Test system: pre-menopausal women
# Assay: uterine bleeding pattern, clinical trial of compound (VI) 200 mg per day (choline salt) with add-back therapy (1.0 mg E2, 0.5 mg norethindrone acetate)
# Type: in vivo, human
# Procedure: The experiments described in this example were conducted as part of a single-center, open-label, randomized, parallel-group clinical trial in 32 pre-menopausal women. Following screening assessments, and during the second half of the menstrual cycle, women received norethindrone (5 mg, three-times daily for 10 days) to synchronize menstrual cycles. After menstrual cycle synchronization, subjects were randomized with a 1:1 ratio to one of two treatment arms: (i) a cohort receiving once-daily administration of compound (VI) (200 mg per day, administered in the form of a choline salt) with concurrent onset of add-back therapy administration for 10 weeks (“Concurrent-ABT”), or (ii) a cohort receiving pre-treatment with compound (VI) (200 mg per day, administered in the form of a choline salt) for 4 weeks followed by combined daily administration of compound (VI) and add-back therapy (“Delayed-ABT”). The add-back therapy used in these experiments contained 1.0 mg of E2 and 0.5 mg of norethindrone acetate, and was administered to subjects once daily.
# The main treatment outcomes and endpoints measured during these experiments included (i) a qualitative assessment of uterine blood loss, which was recorded on a daily basis throughout the study by characterizing each subject's bleeding pattern using one of the following four categories: “no bleeding,” “spotting” (light staining, dark blood, no sanitary protection needed or only panty liner), “bleeding” (1-4 completely soiled maxi sanitary towels or 1-8 soiled tampons or equivalent combination of the two), or “heavy bleeding” (>4 completely soiled maxi sanitary towels or >8 soiled tampons or equivalent combination of the two); (ii) a bi-weekly assessment of each subject's circulating E2 concentration; (iii) a bi-weekly assessment of each subject's circulating progesterone concentration (measured using a validated commercial chemiluminescence immunoassay method (Elecsys Progesterone III, Roche, Burgess Hill, UK)); (iv) the pharmacokinetic profile of compound (VI) and the add-back therapy; and (v) adverse events.
# [1] = Concurrent-ABT group, first half of treatment
# [2] = Concurrent-ABT group, second half of the treatment period
# [3] = Days 1-14, treatment A (Concurrent-ABT), N=16
# [4] = Days 1-14, treatment B (Delayed-ABT), N=16
# [5] = Days 15-28, Overall (A+B), N=32
# [6] = Days 15-28, treatment A (Concurrent-ABT), N=16
# [7] = Days 15-28, treatment B (Delayed-ABT), N=16
# [8] = Days 29-42, Overall (A+B), N=29
# [9] = Days 29-42, treatment A (Concurrent-ABT), N=14
compound,measurement,setting,value
"COc1cc(F)c(-n2c(=O)[nH]c3csc(C(=O)O)c3c2=O)cc1OCc1c(OC)ccc(F)c1F [Compound (VI), 3-[2-fluoro-5-(2,3-difluoro-6-methoxybenzyloxy)4-methoxyphenyl]-2,4-dioxo-1,2,3,4-tetrahydrothieno [3,4d]pyrimidine-5-carboxylic acid]",women who had reached amenorrhea within 5 days of treatment,Concurrent-ABT group,~40%
same,"bleeding, frequency",[1],≤ 4%
same,"spotting, frequency",[1],≤ 10%
same,women in complete amenorrhea (no bleeding),"Concurrent-ABT group, last 4 weeks of treatment",~80%
same,"amenorrhea, frequency",[2],up to 98%
same,"bleeding, frequency",[2],less than 3%
same,"spotting, frequency",[2],1-5%
same,Uterine Bleeding Pattern,"Concurrent-ABT, Weeks 2-4",Spotting and bleeding generally decreased over time
same,Uterine Bleeding Pattern: Bleeding,"Concurrent-ABT, Weeks 2-4",Bleeding: ≤4%
same,Uterine Bleeding Pattern: Spotting,"Concurrent-ABT, Weeks 2-4",Spotting: ≤8%
same,Uterine Bleeding Pattern: Bleeding,"Concurrent-ABT, Weeks 7-10",Bleeding: ≤2%
same,Uterine Bleeding Pattern: Spotting,"Concurrent-ABT, Weeks 7-10",Spotting: 1-5%
same,Uterine Bleeding Pattern: amenorrhea,"Concurrent-ABT, Weeks 7-10",Amenorrhea: Up to 98%
same,"No Bleeding or Spotting, subjects (%), Plasma Estradiol Level 20-50 pg/mL","Days 1-14, Overall (A+B), N=32",(9.4%)
same,"No Bleeding or Spotting, subjects (%), Plasma Estradiol Level <20 pg/mL","Days 1-14, Overall (A+B), N=32",(15.6%)
same,"No Bleeding or Spotting, subjects (%), Plasma Estradiol Level >50 pg/mL","Days 1-14, Overall (A+B), N=32",(3.1%)
same,"No Bleeding or Spotting, subjects (n), Plasma Estradiol Level 20-50 pg/mL","Days 1-14, Overall (A+B), N=32",3
same,"No Bleeding or Spotting, subjects (n), Plasma Estradiol Level <20 pg/mL","Days 1-14, Overall (A+B), N=32",5
same,"No Bleeding or Spotting, subjects (n), Plasma Estradiol Level >50 pg/mL","Days 1-14, Overall (A+B), N=32",1
same,"No Bleeding, subjects (%), Plasma Estradiol Level 20-50 pg/mL","Days 1-14, Overall (A+B), N=32",(0.0%)
same,"No Bleeding, subjects (%), Plasma Estradiol Level <20 pg/mL","Days 1-14, Overall (A+B), N=32",(3.1%)
same,"No Bleeding, subjects (%), Plasma Estradiol Level >50 pg/mL","Days 1-14, Overall (A+B), N=32",(3.1%)
same,"No Bleeding, subjects (n), Plasma Estradiol Level 20-50 pg/mL","Days 1-14, Overall (A+B), N=32",0
same,"No Bleeding, subjects (n), Plasma Estradiol Level <20 pg/mL","Days 1-14, Overall (A+B), N=32",1
same,"No Bleeding, subjects (n), Plasma Estradiol Level >50 pg/mL","Days 1-14, Overall (A+B), N=32",1
same,"No Bleeding or Spotting, subjects (%), Plasma Estradiol Level 20-50 pg/mL",[3],(18.8%)
same,"No Bleeding or Spotting, subjects (%), Plasma Estradiol Level <20 pg/mL",[3],(0.0%)
same,"No Bleeding or Spotting, subjects (%), Plasma Estradiol Level >50 pg/mL",[3],(6.3%)
same,"No Bleeding or Spotting, subjects (n), Plasma Estradiol Level 20-50 pg/mL",[3],3
same,"No Bleeding or Spotting, subjects (n), Plasma Estradiol Level <20 pg/mL",[3],0
same,"No Bleeding or Spotting, subjects (n), Plasma Estradiol Level >50 pg/mL",[3],1
same,"No Bleeding, subjects (%), Plasma Estradiol Level 20-50 pg/mL",[3],(0.0%)
same,"No Bleeding, subjects (%), Plasma Estradiol Level <20 pg/mL",[3],(0.0%)
same,"No Bleeding, subjects (%), Plasma Estradiol Level >50 pg/mL",[3],(6.3%)
same,"No Bleeding, subjects (n), Plasma Estradiol Level 20-50 pg/mL",[3],0
same,"No Bleeding, subjects (n), Plasma Estradiol Level <20 pg/mL",[3],0
same,"No Bleeding, subjects (n), Plasma Estradiol Level >50 pg/mL",[3],1
same,"No Bleeding or Spotting, subjects (%), Plasma Estradiol Level 20-50 pg/mL",[4],(0.0%)
same,"No Bleeding or Spotting, subjects (%), Plasma Estradiol Level <20 pg/mL",[4],(31.3%)
same,"No Bleeding or Spotting, subjects (%), Plasma Estradiol Level >50 pg/mL",[4],(0.0%)
same,"No Bleeding or Spotting, subjects (n), Plasma Estradiol Level 20-50 pg/mL",[4],0
same,"No Bleeding or Spotting, subjects (n), Plasma Estradiol Level <20 pg/mL",[4],5
same,"No Bleeding or Spotting, subjects (n), Plasma Estradiol Level >50 pg/mL",[4],0
same,"No Bleeding, subjects (%), Plasma Estradiol Level 20-50 pg/mL",[4],(0.0%)
same,"No Bleeding, subjects (%), Plasma Estradiol Level <20 pg/mL",[4],(6.3%)
same,"No Bleeding, subjects (%), Plasma Estradiol Level >50 pg/mL",[4],(0.0%)
same,"No Bleeding, subjects (n), Plasma Estradiol Level 20-50 pg/mL",[4],0
same,"No Bleeding, subjects (n), Plasma Estradiol Level <20 pg/mL",[4],1
same,"No Bleeding, subjects (n), Plasma Estradiol Level >50 pg/mL",[4],0
same,"No Bleeding or Spotting, subjects (%), Plasma Estradiol Level 20-50 pg/mL",[5],(34.4%)
same,"No Bleeding or Spotting, subjects (%), Plasma Estradiol Level <20 pg/mL",[5],(53.1%)
same,"No Bleeding or Spotting, subjects (%), Plasma Estradiol Level >50 pg/mL",[5],(3.1%)
same,"No Bleeding or Spotting, subjects (n), Plasma Estradiol Level 20-50 pg/mL",[5],11
same,"No Bleeding or Spotting, subjects (n), Plasma Estradiol Level <20 pg/mL",[5],17
same,"No Bleeding or Spotting, subjects (n), Plasma Estradiol Level >50 pg/mL",[5],1
same,"No Bleeding, subjects (%), Plasma Estradiol Level 20-50 pg/mL",[5],(21.9%)
same,"No Bleeding, subjects (%), Plasma Estradiol Level <20 pg/mL",[5],(50.0%)
same,"No Bleeding, subjects (%), Plasma Estradiol Level >50 pg/mL",[5],(3.1%)
same,"No Bleeding, subjects (n), Plasma Estradiol Level 20-50 pg/mL",[5],7
same,"No Bleeding, subjects (n), Plasma Estradiol Level <20 pg/mL",[5],16
same,"No Bleeding, subjects (n), Plasma Estradiol Level >50 pg/mL",[5],1
same,"No Bleeding or Spotting, subjects (%), Plasma Estradiol Level 20-50 pg/mL",[6],(62.5%)
same,"No Bleeding or Spotting, subjects (%), Plasma Estradiol Level <20 pg/mL",[6],(12.5%)
same,"No Bleeding or Spotting, subjects (%), Plasma Estradiol Level >50 pg/mL",[6],(6.3%)
same,"No Bleeding or Spotting, subjects (n), Plasma Estradiol Level 20-50 pg/mL",[6],10
same,"No Bleeding or Spotting, subjects (n), Plasma Estradiol Level <20 pg/mL",[6],2
same,"No Bleeding or Spotting, subjects (n), Plasma Estradiol Level >50 pg/mL",[6],1
same,"No Bleeding, subjects (%), Plasma Estradiol Level 20-50 pg/mL",[6],(37.5%)
same,"No Bleeding, subjects (%), Plasma Estradiol Level <20 pg/mL",[6],(12.5%)
same,"No Bleeding, subjects (%), Plasma Estradiol Level >50 pg/mL",[6],(6.3%)
same,"No Bleeding, subjects (n), Plasma Estradiol Level 20-50 pg/mL",[6],6
same,"No Bleeding, subjects (n), Plasma Estradiol Level <20 pg/mL",[6],2
same,"No Bleeding, subjects (n), Plasma Estradiol Level >50 pg/mL",[6],1
same,"No Bleeding or Spotting, subjects (%), Plasma Estradiol Level 20-50 pg/mL",[7],(6.3%)
same,"No Bleeding or Spotting, subjects (%), Plasma Estradiol Level <20 pg/mL",[7],(93.8%)
same,"No Bleeding or Spotting, subjects (%), Plasma Estradiol Level >50 pg/mL",[7],(0.0%)
same,"No Bleeding or Spotting, subjects (n), Plasma Estradiol Level 20-50 pg/mL",[7],1
same,"No Bleeding or Spotting, subjects (n), Plasma Estradiol Level <20 pg/mL",[7],15
same,"No Bleeding or Spotting, subjects (n), Plasma Estradiol Level >50 pg/mL",[7],0
same,"No Bleeding, subjects (%), Plasma Estradiol Level 20-50 pg/mL",[7],(6.3%)
same,"No Bleeding, subjects (%), Plasma Estradiol Level <20 pg/mL",[7],(87.5%)
same,"No Bleeding, subjects (%), Plasma Estradiol Level >50 pg/mL",[7],(0.0%)
same,"No Bleeding, subjects (n), Plasma Estradiol Level 20-50 pg/mL",[7],1
same,"No Bleeding, subjects (n), Plasma Estradiol Level <20 pg/mL",[7],14
same,"No Bleeding, subjects (n), Plasma Estradiol Level >50 pg/mL",[7],0
same,"No Bleeding or Spotting, subjects (%), Plasma Estradiol Level 20-50 pg/mL",[8],(55.2%)
same,"No Bleeding or Spotting, subjects (%), Plasma Estradiol Level <20 pg/mL",[8],(13.8%)
same,"No Bleeding or Spotting, subjects (%), Plasma Estradiol Level >50 pg/mL",[8],(20.7%)
same,"No Bleeding or Spotting, subjects (n), Plasma Estradiol Level 20-50 pg/mL",[8],16
same,"No Bleeding or Spotting, subjects (n), Plasma Estradiol Level <20 pg/mL",[8],4
same,"No Bleeding or Spotting, subjects (n), Plasma Estradiol Level >50 pg/mL",[8],6
same,"No Bleeding, subjects (%), Plasma Estradiol Level 20-50 pg/mL",[8],(41.4%)
same,"No Bleeding, subjects (%), Plasma Estradiol Level <20 pg/mL",[8],(13.8%)
same,"No Bleeding, subjects (%), Plasma Estradiol Level >50 pg/mL",[8],(17.2%)
same,"No Bleeding, subjects (n), Plasma Estradiol Level 20-50 pg/mL",[8],12
same,"No Bleeding, subjects (n), Plasma Estradiol Level <20 pg/mL",[8],4
same,"No Bleeding, subjects (n), Plasma Estradiol Level >50 pg/mL",[8],5
same,"No Bleeding or Spotting, subjects (%), Plasma Estradiol Level 20-50 pg/mL",[9],(64.3%)
same,"No Bleeding or Spotting, subjects (%), Plasma Estradiol Level <20 pg/mL",[9],(7.1%)
same,"No Bleeding or Spotting, subjects (%), Plasma Estradiol Level >50 pg/mL",[9],(21.4%)
